Experimental data as given in patent US9170257B2 (priority 2012, dated 2015).
Like-named read-outs stand apart in the source and are kept apart here.

How the values were obtained:
[1] = Tissue distribution of curcumin and THC at necropsy 15 minutes post-infusion; design: species or system Beagle dogs; conditions: both sexes, beagle, dog, in vivo, 10 mg/kg; for Kp at 8 h: 8 hr infusion
Protocol: The test article will be administered to 8 Beagle dogs by intravenous infusion over two hours (Part A) or eight hours (Part B) as shown in Table 6.
Multiple samples of tissue weighing approximately 1 gram were removed and snap frozen in the presence or absence of phosphoric acid (H3PO4). For all tissue samples, the levels of curcumin and THC were determined using a method developed by the Bioanalytical Department at Nucro-Technics. […] Values that were below the limit of quantification were assigned a value of 0. […] Tissue distribution data was analyzed using, unless stated, the data from 4 dogs and are presented as the mean±standard error (S.E.).

[2] = Bench stability in Phase 1 human plasma samples; assay type: in vitro ADME; conditions: human plasma with Na-phosphate, room temperature, a couple of hours
Protocol: After the addition of 50 μl 5% H3PO4 to 950 ml plasma the pH was 4.4.

COc1cc(CCC(=O)CC(=O)CCc2ccc(O)c(OC)c2)ccc1O [THC, tetrahydrocurcumin]
Kp at 8 h ([1]; H3PO4 stabilized, read-out: Kp [tissue]/[plasma], Urinary Bladder): 0.0106 | concentration at 15 min ([1]; Average tissue concentration, Intestinal wall, Eight hour infusion, H3PO4 stabilized): 0.09 ng/g | concentration at 15 min ([1]; Average tissue concentration, Intestinal wall, Two hour infusion, H3PO4 stabilized): 2.11 ng/g | concentration at 15 min ([1]; Eight hour infusion, H3PO4 stabilized, read-out: Average tissue concentration, Bladder): 1.11 ng/g | concentration at 15 min ([1]; Eight hour infusion, H3PO4 stabilized, read-out: Average tissue concentration, Brainstem): 3.02 ng/g | concentration at 15 min ([1]; Eight hour infusion, H3PO4 stabilized, read-out: Average tissue concentration, Cortex): 0.49 ng/g | concentration at 15 min ([1]; Eight hour infusion, H3PO4 stabilized, read-out: Average tissue concentration, Heart): 0.03 ng/g | concentration at 15 min ([1]; Eight hour infusion, H3PO4 stabilized, read-out: Average tissue concentration, Hippocampus): 1.12 ng/g | concentration at 15 min ([1]; Eight hour infusion, H3PO4 stabilized, read-out: Average tissue concentration, Kidney): 2.03 ng/g | concentration at 15 min ([1]; Eight hour infusion, H3PO4 stabilized, read-out: Average tissue concentration, Liver): 2.24 ng/g | concentration at 15 min ([1]; Eight hour infusion, H3PO4 stabilized, read-out: Average tissue concentration, Lung): 6.36 ng/g | concentration at 15 min ([1]; Eight hour infusion, H3PO4 stabilized, read-out: Average tissue concentration, Muscle): 2.42 ng/g | concentration at 15 min ([1]; Eight hour infusion, H3PO4 stabilized, read-out: Average tissue concentration, Pancreas): 1.34 ng/g | concentration at 15 min ([1]; Eight hour infusion, H3PO4 stabilized, read-out: Average tissue concentration, Spleen): 0.42 ng/g | concentration at 15 min ([1]; Eight hour infusion, H3PO4 stabilized, read-out: Average tissue concentration, Striatum): 3.13 ng/g | Kp at 2 h ([1]; Kp [tissue]/[plasma], Intestinal Wall, 2 hr infusion, H3PO4 stabilized): 0.0003 | Kp at 8 h ([1]; Kp [tissue]/[plasma], Intestinal Wall, H3PO4 stabilized): 0.002 | concentration at 15 min ([1]; Table 14, 2 hour infusion, +H3PO4, read-out: Tissue analysis, Brainstem): 10.6 ng/g | concentration at 15 min ([1]; Table 14, 2 hour infusion, +H3PO4, read-out: Tissue analysis, Cortex): 3.08 ng/g | concentration at 15 min ([1]; Table 14, 2 hour infusion, +H3PO4, read-out: Tissue analysis, Hippocampus): 6.46 ng/g | concentration at 15 min ([1]; Table 14, 2 hour infusion, +H3PO4, read-out: Tissue analysis, Liver): 4.58 ng/g | concentration at 15 min ([1]; Table 14, 2 hour infusion, +H3PO4, read-out: Tissue analysis, Lung): 9.37 ng/g | concentration at 15 min ([1]; Table 14, 2 hour infusion, +H3PO4, read-out: Tissue analysis, Pancreas): 0.91 ng/g | concentration at 15 min ([1]; Table 14, 2 hour infusion, +H3PO4, read-out: Tissue analysis, Spleen): 1.6 ng/g | concentration at 15 min ([1]; Table 14, 2 hour infusion, +H3PO4, read-out: Tissue analysis, Striatum): 11.1 ng/g | concentration at 15 min ([1]; Table 14, 2 hour infusion, −H3PO4, read-out: Tissue analysis, Brainstem): 2.33 ng/g | concentration at 15 min ([1]; Table 14, 2 hour infusion, −H3PO4, read-out: Tissue analysis, Cortex): 0.67 ng/g | concentration at 15 min ([1]; Table 14, 2 hour infusion, −H3PO4, read-out: Tissue analysis, Hippocampus): 0.75 ng/g | concentration at 15 min ([1]; Table 14, 2 hour infusion, −H3PO4, read-out: Tissue analysis, Liver): 2.41 ng/g | concentration at 15 min ([1]; Table 14, 2 hour infusion, −H3PO4, read-out: Tissue analysis, Lung): 17.7 ng/g | concentration at 15 min ([1]; Table 14, 2 hour infusion, −H3PO4, read-out: Tissue analysis, Pancreas): 2.01 ng/g | concentration at 15 min ([1]; Table 14, 2 hour infusion, −H3PO4, read-out: Tissue analysis, Spleen): 1.35 ng/g | concentration at 15 min ([1]; Table 14, 2 hour infusion, −H3PO4, read-out: Tissue analysis, Striatum): 6.21 ng/g | concentration at 15 min ([1]; Table 15, 2 hour infusion, +H3PO4, read-out: Tissue analysis, Brainstem): 3.02 ng/g | concentration at 15 min ([1]; Table 15, 2 hour infusion, +H3PO4, read-out: Tissue analysis, Cortex): 0.49 ng/g | concentration at 15 min ([1]; Table 15, 2 hour infusion, +H3PO4, read-out: Tissue analysis, Hippocampus): 1.12 ng/g | concentration at 15 min post-infusion ([1]; Table 15, 2 hour infusion, +H3PO4, read-out: Tissue analysis, Liver): 2.24 ng/g | concentration at 15 min ([1]; Table 15, 2 hour infusion, +H3PO4, read-out: Tissue analysis, Lung): 6.36 ng/g | concentration at 15 min ([1]; Table 15, 2 hour infusion, +H3PO4, read-out: Tissue analysis, Pancreas): 1.34 ng/g | concentration at 15 min post-infusion ([1]; Table 15, 2 hour infusion, +H3PO4, read-out: Tissue analysis, Spleen): 0.42 ng/g | concentration at 15 min ([1]; Table 15, 2 hour infusion, +H3PO4, read-out: Tissue analysis, Striatum): 3.13 ng/g | concentration at 15 min ([1]; Table 15, 2 hour infusion, −H3PO4, read-out: Tissue analysis, Brainstem): 0.83 ng/g | concentration at 15 min ([1]; Table 15, 2 hour infusion, −H3PO4, read-out: Tissue analysis, Cortex): 0.12 ng/g | concentration at 15 min ([1]; Table 15, 2 hour infusion, −H3PO4, read-out: Tissue analysis, Hippocampus): 0.01 ng/g | concentration at 15 min post-infusion ([1]; Table 15, 2 hour infusion, −H3PO4, read-out: Tissue analysis, Liver): 2.63 ng/g | concentration at 15 min ([1]; Table 15, 2 hour infusion, −H3PO4, read-out: Tissue analysis, Lung): 10.8 ng/g | concentration at 15 min ([1]; Table 15, 2 hour infusion, −H3PO4, read-out: Tissue analysis, Pancreas): 0.33 ng/g | concentration at 15 min post-infusion ([1]; Table 15, 2 hour infusion, −H3PO4, read-out: Tissue analysis, Spleen): 0.32 ng/g | concentration at 15 min ([1]; Table 15, 2 hour infusion, −H3PO4, read-out: Tissue analysis, Striatum): 1.12 ng/g | concentration at 15 min ([1]; Tissue level, Intestinal Wall, 2 hour infusion, No H3PO4): 0.73 ng/g | concentration at 15 min ([1]; Tissue level, Intestinal Wall, 2 hour infusion, Plus H3PO4): 2.12 ng/g | concentration at 15 min ([1]; Tissue level, Intestinal Wall, 8 hour infusion, No H3PO4): 0.31 ng/g | concentration at 15 min ([1]; Tissue level, Intestinal Wall, 8 hour infusion, Plus H3PO4): 0.21 ng/g | concentration at 15 min ([1]; Two hour infusion, H3PO4 stabilized, read-out: Average tissue concentration, Bladder): 2.25 ng/g | concentration at 15 min ([1]; Two hour infusion, H3PO4 stabilized, read-out: Average tissue concentration, Brainstem): 10.6 ng/g | concentration at 15 min ([1]; Two hour infusion, H3PO4 stabilized, read-out: Average tissue concentration, Cortex): 3.08 ng/g | concentration at 15 min ([1]; Two hour infusion, H3PO4 stabilized, read-out: Average tissue concentration, Heart): 0.68 ng/g | concentration at 15 min ([1]; Two hour infusion, H3PO4 stabilized, read-out: Average tissue concentration, Hippocampus): 6.46 ng/g | concentration at 15 min ([1]; Two hour infusion, H3PO4 stabilized, read-out: Average tissue concentration, Kidney): 4.25 ng/g | concentration at 15 min ([1]; Two hour infusion, H3PO4 stabilized, read-out: Average tissue concentration, Liver): 4.58 ng/g | concentration at 15 min ([1]; Two hour infusion, H3PO4 stabilized, read-out: Average tissue concentration, Lung): 9.37 ng/g | concentration at 15 min ([1]; Two hour infusion, H3PO4 stabilized, read-out: Average tissue concentration, Muscle): 4.19 ng/g | concentration at 15 min ([1]; Two hour infusion, H3PO4 stabilized, read-out: Average tissue concentration, Pancreas): 0.91 ng/g | concentration at 15 min ([1]; Two hour infusion, H3PO4 stabilized, read-out: Average tissue concentration, Spleen): 1.6 ng/g | concentration at 15 min ([1]; Two hour infusion, H3PO4 stabilized, read-out: Average tissue concentration, Striatum): 11.1 ng/g | bench stability [2]: minimal
